Laboratory results taken from US11912788B2, “Probiotic molecules for reducing pathogen virulence” (priority 2017, dated 2024).

Experiments:
HilA = assay: qPCR of HilA down-regulation in Salmonella, reference gene 16S; format: cell-based, Salmonella enteric typhimurium DT104; conditions: individual synthetic biopeptides, 50 μg per assay
From the text: The cell-free supernatant was separated using Sephadex G75 resin. The samples were separated and collected into fractions: Fraction 1 (>163000 Da), Fraction 2 (163000-14500 Da), Fraction 3(14500-1300 Da), Fraction 4 (1300-110 Da), Fraction 5 (110-10 Da). The samples were collected and assayed by qPCR using Salmonella enteric typhimurium DT104 strain. The down-regulation of HilA was compared to the reference gene 16S.
The active fraction from G75 size exclusion chromatography was further separated using reverse phase chromatography. The fractions from the reverse phase: Fraction 1 (0-2 min), Fraction 2 (2-4 min), Fraction 3 (4-16 min), Fraction 4 (16-32 min), Fraction 5 (32-40 min), Fraction 6 (40-58 min). The fractions were dried and neutralized to remove acetonitrile and trifluoroacetic acid from the solvent. The dried fractions were assayed using the same qPCR assay conditions as above. The fractions were analyzed by de novo sequencing at the University of Guelph Advance Analytical center. The peptides from the active fractions of 6 batches were compared and common peptides from batches were deduced.

HylA = conditions: individual synthetic biopeptides, 50 μg per assay; reference gene GapA
Procedure: The La-5 cell-free supernatant used for these experiments was batch D4. […] Strain 1 alias UPEC99 and strain 2 alias UPEC804. The strains were cultured on LB agar. Two different media were tested LB and artificial urine medium.
The UPEC were grown for 4 hours in the presence of cell-free supernatant. The cells were harvested and the RNA was extracted. The RNA was treated with DNAse I to remove genomic DNA. The RNA was used as a template to make cDNA. The cDNA was assayed by qPCR and the gene expression was normalized to a reference gene and compared to a without cell-free media control.
The synthetic bio-peptides were analyzed at 50 μg per assay.

[1] = test system: Staphylococcus aureus (strain alias LA-414M SPA t034); assay: Cefoxitin MIC testing with and without cell-free supernatant; format: cell-based; conditions: MRSA LA 414M, 0 mg/mL dried cell-free (cefoxitin only)
From the text: (§1) Three methicillin resistant Staphylococci (MRS) strains were used in these experiments: 1) Staphylococcus pseudintermedius (strain alias C260 22-2011 dtqa), a clinical isolate from a dog skin infection; 2) Staphylococcus aureus (strain alias LA-414M SPA t034), a livestock-associated strain isolated from beef purchased from a grocery store in Charlottetown, PEI, Canada; and 3) Staphylococcus aureus (strain alias 81M SPA t008), isolated from poultry meat purchased from a grocery store in Charlottetown, PEI, Canada. All three MRS strains were provided by the Atlantic Veterinary College (AVC) at the University of Prince Edward Island. The methicillin-resistance of these strains was confirmed by AVC staff using an oxacillin disk diffusion method. The strains were originally cultured on sheep blood agar slants, and then transferred to lysogeny broth agar plates. Cefoxitin resuspended in methanol was used for antibiotic resistance testing, and growth was tested in two different media types, standard Lysogeny Broth and standard BBL™ Cation-Adjusted Mueller-Hinton Medium (Becton, Dickinson and Company). The minimum inhibitory concentrations (MICs) of the cefoxitin was determined for each strain in each respective medium in the presence and absence of the cell-free supernatant. Assays were performed according to the Clinical and Laboratory Standards Institute (CLSI) guidelines for MIC testing of Staphylococcal species [CLSI, 2015] as well as the European Committee for Antimicrobial Susceptibility Testing (EUCAST) of the European Society of Clinical Microbiology and Infectious Diseases [EUCAST, 2003].
(§2) The protocol for MIC testing was as follows. The cell-free supernatants were resuspended in the respective media and filter sterilized through a […] pore size filter. The required concentration of dried cell free supernatant was weighed and added at concentrations ranging from 0-60 mg/mL. Cefoxitin was added to obtain final concentrations ranging from 0-250 μg/mL. […] Following incubation, microplates were read at 600 nm using a microplate reader. […]

[2] = test system: Staphylococcus pseudintermedius (strain alias C260 22-2011 dtqa); assay: as above; format: cell-based; conditions: MSRP C260; Lysogeny Broth; 0 mg/mL dried cell-free (cefoxitin only)
From the text: as §1, §2

[3] = test system: Staphylococcus aureus (strain alias 81M SPA t008); assay: Cefoxitin MIC testing with and without cell-free supernatant or its size exclusion fractions; format: cell-based
From the text: as §1, §2

Compound | Fold down-regulation HilA (HilA) [Fold] | Fold down-regulation HylA (HylA) [Fold] | also measured
YPPGGP | 2.93 | 3.56 | 
LKPTPEGD | 11.08 | 4.69 | 
MALPPK | 19.56 | 9.06 | 
HLLPLP | 2.93 | 2.64 | 
YPVEPF | 0.68 | 1.03 | 
CVLPPK | 3.75 | 3.20 | 
CO[C@@]1(NC(=O)Cc2cccs2)C(=O)N2C(C(=O)O)=C(COC(N)=O)CS[C@@H]21 [Cefoxitin] |  |  | Range of Cefoxitin concentration to inhibition growth to O.D. < 0.1 (cefoxitin MIC) ([1]; Lysogeny Broth): 30 to 40 µg/mL; Range of Cefoxitin concentration to inhibition growth to O.D. < 0.1 (cefoxitin MIC) ([1]; Mueller-Hinton Broth): 50 to 60 µg/mL; Range of Cefoxitin concentration to inhibition growth to O.D. < 0.1 (cefoxitin MIC) [2]: 125 to 175 µg/mL; Range of Cefoxitin concentration to inhibition growth to O.D. < 0.1 (cefoxitin MIC) ([3]; MRSA 81M, Lysogeny Broth, 0 mg/mL dried cell-free (cefoxitin only)): 75 to 125 µg/mL; Range of Cefoxitin concentration to inhibition growth to O.D. < 0.1 (cefoxitin MIC) ([3]; MRSA 81M, Mueller-Hinton Broth, 0 mg/mL dried cell-free (cefoxitin only)): 75 to 100 µg/mL; Range of Cefoxitin concentration to inhibition growth to O.D. < 0.1 (cefoxitin MIC) ([3]; Table 4, Staphylococcus aureus 81M, Untreated (0 mg/mL), cefoxitin only): 60 to 75 µg/mL
